Read-outs that look alike come from different tables or passages of the source.
Tests used:
[1] = tested on: human colon carcinoma cell line CX-1; experiment: Colony formation assay, human colon carcinoma CX-1; format: cell-based; conditions: Table III; for IC50: Homo sapiens, Colon carcinoma cell, read-out: CX-1 (IC50); for IC50 / CX-1 (IC50): 24 h treatment, colony count after 7 to 10 days; for Selectivity (ratio of IC50 for CV-1 and IC50 for CX-1): CV-1/CX-1
[2] = tested on: human ovarian carcinoma OVCAR-3; experiment: Survival of nude mice implanted with human ovarian carcinoma OVCAR-3; format: in vivo, human ovarian carcinoma in athymic Swiss nu/nu mice
Method: A human ovarian carcinoma cell line, OVCAR-3, was used. Ten million cells of this cell line were injected IP into ten athymic Swiss nu/nu mice. Ten mice into which these cancer cells had been injected were selected as a control group and received in equal volume of 5% dextrose as that of the treated group. The compounds of the General Formulas (1) to (6) which were tested and the results obtained are shown in Table IX below and in FIG. 7-9 of the accompanying drawings.

[3] = tested on: normal monkey kidney epithelial cell line CV-1; experiment: Colony formation assay, normal monkey kidney epithelial cells CV-1; conditions: Primates, Epithelial cell;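 further: colonies visualized by crystal violet staining, incubation at 37 °C, IC50 relative to untreated wells given culture medium alone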
Method: Human colon carcinoma cell line CX-1 or normal monkey kidney epithelial cell line CV-1 was chosen as representatives of cancer cells and normal cells, respectively. […] CX-1 cells (2,000 cells/well) and CV-1 cells (1,000 cells/well) were plated in 24-well plastic culture plates. […] The control received culture media only. Cells were treated with compounds of General Formulas (1) to (6) at 37° C. for 24 hours. After rinsing with fresh culture medium three times, the cells were further incubated at 37° C. for 7 to 10 days. Cell colonies were fixed and stained with 2% crystal violet in 70% ethanol for 10 minutes and rinsed in water. […] The selectivity is defined as the ratio of IC50 for CV-1 and IC50 for CX-1.

[4] = tested on: human colon carcinoma CX-1; experiment: Anti-human colon carcinoma CX-1 activity in nude mice, tumor inhibition; format: in vivo, human colon carcinoma in Swiss nu/nu mice; conditions: Mus musculus, ip, 24 h
From the text: Human colon carcinoma cell line CX-1 has been chosen by the National Cancer Institute as a mode for cancer drug screening (NCI Protocol 3C2H2). It was established in culture from the surgical explant of the primary colon adenocarcinoma of a person with no previous chemotherapy. The cultured CX-1 cells, upon subcutaneous injection, can grow readily in nude mice as a moderately- to well-differentiated human colon carcinoma. CEA is expressed as expected for differentiated colon carcinoma cells. Abundant keratin, consistent with epithelial origin, is present. Increased uptake and prolonged retention of delocalized lipophilic cations are observed.
Swiss nu/nu mice obtained from Taconic Farm were housed in a pathogen-free environment. Tumors subcutaneously passaged in nude mice were excised under sterile conditions and converted to a single cell suspension using a metal grid with a 0.4 mm mesh. Red blood cells were lysed by incubation with 0.17M ammonium chloride at 4° C. for 20 minutes. Cells were scored for viability with trypan blue. Viable CX-1 cells (2.5 million) made up in 0.1 ml of cell culture medium were injected subcutaneously into each nude mouse. The mice were randomly allocated into a control group (five mice) and a treatment group (five mice per group). The drug treatment was commenced the next day. Doses and schedules were developed empirically and were based mainly on information on LD50 and LD10 obtained from preliminary toxicity studies. The control group received an equivalent volume of hydroxylpropyl-β-cyclodextrin-5% glucose solution.
The pharmaceutical compositions tested comprised solutions in 5% glucose subjected to sonication at concentrations of 1 mg/ml. Those compounds which were not completely dissolved by this procedure were dissolved in hydroxypropyl-β-cyclodextrin using the following method. Hydroxypropyl-β-cyclodextrin (45 g) was mixed with 100 ml of sterilized, double distilled water and stirred for four hours. Each of the compounds to be tested (20 mg) was mixed with 10 ml of hydroxypropyl-β-cyclodextrin solution and sonicated for 60 minutes in the dark. This solution was then diluted in 5% glucose to yield a final compound concentration of 0.5 mg/ml, and further sonicated for 60 minutes in the dark to assure that the compound was completely dissolved.
When the growth of tumors in the control group reached the exponential phase and the size of the tumor was palpable (usually 20 to 30 days after tumor implantation), the experiments were terminated. Tumors in each mouse were excised and weighed using an analytical balance. Total tumor weight in each group from five mice was calculated. Per cent tumor inhibition between the treated group and the control group was then calculated for each group.

human melanoma LOX = experiment: Survival of nude mice implanted with human melanoma LOX; format: in vivo, human melanoma in male athymic Swiss nu/nu mouse; conditions: Mus musculus, ip, 24 h, read-out: T/C (survival)
Method: LOX, a human melanoma cell line, grown subcutaneously in nude mice was excised, trypsinized to yield a single cell suspension using a metal grid with a […]. Red blood cells were lysed by incubation with 0.17 molar ammonium chloride at 4° C. for 20 minutes. Five million viable trypan blue negative cells made up in 0.1 ml of Dulbecco modified Eagles' medium (DME) were injected into the peritoneal cavity of a male athymic Swiss nu/nu mouse. The control group and each treatment group consisted of 5 to 10 mice. Treatment was commenced the following day by intraperitoneal injection.
Ten control mice received 0.25 ml of 2% dextrose on those days the treated groups were injected with the compounds of this invention. The compounds of the General Formulas. (1) to (6) used in this invention which were tested are listed in Table VIII below and the results obtained are shown in Table VIII and FIG. 1-6 of the accompanying drawings. T/C is the ratio, expressed as a percentage of the mean survival age of the treated group to the mean survival age of the untreated control group.

[5] = tested on: human bladder carcinoma EJ cell line; experiment: Colony formation assay, human bladder carcinoma EJ; format: cell-based; conditions: Table IV; for IC50: Homo sapiens, EJ, 24 h, read-out: EJ (IC50); for Selectivity (CV-1 IC50 / EJ IC50): CV-1/EJ
From the text: (§1) The control received culture media only.

[6] = tested on: human pancreatic carcinoma CRL 1420 cell line; experiment: Colony formation assay, human pancreatic carcinoma CRL 1420; format: cell-based; conditions: Table VII; for IC50: Homo sapiens, 24 h; for IC50 / CRL-1420 (IC50): 24 h treatment; for Selectivity (CV-1 IC50 / CRL-1420 IC50): CV-1/CRL-1420
From the text: as §1
The Selectivity values, CRL 1420 values and CV-1 values for compounds of the General Formulas (1) to (6) used in the present invention are shown in Table VII below.

[7] = tested on: human breast carcinoma MCF-7 cell line; experiment: Colony formation assay, human breast carcinoma MCF-7; format: cell-based; conditions: Table VI; for IC50: Homo sapiens, MCF7, 24 h, 24 h treatment, read-out: MCF-7 (IC50); for Selectivity (CV-1 IC50 / MCF-7 IC50): CV-1/MCF-7
From the text: as §1
The Selectivity values, MCF-7 values and CV-1 values for compounds of the General Formulas (1) to (6) used in the present invention are shown in Table VI below.

[8] = tested on: human melanoma LOX cell line; experiment: Colony formation assay, human melanoma LOX; format: cell-based; conditions: Table V; for IC50: Homo sapiens, LOX, 24 h, read-out: LOX (IC50); for Selectivity (CV-1 IC50 / LOX IC50): CV-1/LOX
From the text: as §1

normal nude mice = experiment: Toxicity to normal nude mice
[9] = read-out: CV-1 (IC50), Table III, 24 h treatment, colony count after 7 to 10 days
[10] = i.p. on day 1, 4, 7, 11, 15, 18
[11] = read-out: CV-1 (IC50), Table IV
[12] = read-out: CV-1 (IC50), Table VI
[13] = read-out: CV-1 (IC50), Table VII

| SMILES | IC50 [1] | Selectivity (ratio of IC50 for CV-1 and IC50 for CX-1) [1] | IC50 [3, 9] | IC50 ([5]; 24 h treatment) | Selectivity (CV-1 IC50 / EJ IC50) [5] | Selectivity (CV-1 IC50 / CRL-1420 IC50) [6] | IC50 [7] | Selectivity (CV-1 IC50 / MCF-7 IC50) [7] | Selectivity (CV-1 IC50 / LOX IC50) [8] | IC50 [3, 11] | IC50 ([3]; read-out: CV-1 (IC50), Table V) | IC50 [3, 12] | IC50 [3, 13] | other results |
| --- | --- | --- | --- | --- | --- | --- | --- | --- | --- | --- | --- | --- | --- | --- |
| C=CCn1c(=Cc2sc3c4ccccc4ccc3[n+]2CC)sc(=CC=C2C=CN(CC)c3ccccc32)c1=O [Compound 290] | 0.025 µg/mL | 100 | 2.5 µg/mL | – | – | – | – | – | – | – | – | – | – | T/C (survival) ([2]; 2 mg/kg, i.p. on day 1, 5, 9, 18, 48): 356% |
| CCN1CCSC1=CC=c1sc(=Cc2sc3c4ccccc4ccc3[n+]2CC)n(CC)c1=O [Compound 116] | – | – | – | – | – | – | – | – | – | – | – | – | – | T/C (survival) ([2]; 5 mg/kg, i.p. on day 1, 5, 9, 14, 19, 23, 27, 48): > 378%; inhibition in vivo at 5 mg/kg ([4]; i.p. on day 1, 6, 10, 14, 19, 23): 77%; response vs control in vivo at 5 mg/kg (human melanoma LOX; 5 mg/kg, i.p. on day 1, 5, 9, 13, 17, 22): 582% |
| CCN1C(=CC=c2sc(=Cc3sc4c5ccccc5ccc4[n+]3CC)n(C)c2=O)Sc2ccc3ccccc3c21 [Compound 45] | 0.02 µg/mL | 1000 | 20 µg/mL | 0.05 µg/mL | 400 | 286 | 0.06 µg/mL | 333 | 286 | 20 µg/mL | 20 µg/mL | 20 µg/mL | 20 µg/mL | IC50 [6]: 0.07 µg/mL; IC50 ([8]; 24 h treatment): 0.07 µg/mL; inhibition in vivo at 20 mg/kg [4, 10]: 56.8%; response vs control in vivo at 20 mg/kg (human melanoma LOX; i.p. on day 1, 2, 3, 6, 9, 13): 137% |
| CCN1C(=CC=c2sc(=Cc3sc4c5ccccc5ccc4[n+]3CC)n(CC)c2=O)Sc2ccc3ccccc3c21 [Compound 54] | – | 500 | – | – | 500 | 400 | 0.05 µg/mL | 400 | 286 | 20 µg/mL | 20 µg/mL | 20 µg/mL | 20 µg/mL | CX-1 (IC50) [1]: 0.04 µg/mL; EJ (IC50) ([5]; 24 h treatment): 0.04 µg/mL; CRL-1420 (IC50) [6]: 0.05 µg/mL; LOX (IC50) ([8]; 24 h treatment): 0.07 µg/mL; inhibition in vivo at 5 mg/kg ([4]; i.p. on day 1, 5, 9, 13): 42.6% |
| CCn1c(=Cc2sc3c4ccccc4ccc3[n+]2CC)sc(=CC=C2Sc3ccc4ccccc4c3N2C)c1=O [Compound 56] | – | 200 | – | 0.09 µg/mL | 222 | > 435 | – | – | – | 20 µg/mL | – | – | – | CX-1 (IC50) [1]: 0.1 µg/mL; CRL-1420 (IC50) [6]: < 0.046 µg/mL; inhibition in vivo at 20 mg/kg ([4]; i.p. on day 1, 5, 8, 11): 82.6% |
| CC[n+]1c(C=c2sc(=CC=C3Sc4ccc5ccccc5c4N3C)c(=O)n2C)sc2c3ccccc3ccc21 [Compound 47] | 0.05 µg/mL | 400 | 20 µg/mL | 0.082 µg/mL | 244 | 312 | 0.1 µg/mL | 200 | 244 | 20 µg/mL | 20 µg/mL | 20 µg/mL | 20 µg/mL | IC50 [6]: 0.064 µg/mL; IC50 ([8]; 24 h treatment): 0.082 µg/mL; inhibition in vivo at 20 mg/kg [4, 10]: 64.1%; response vs control in vivo at 20 mg/kg (human melanoma LOX; i.p. on day 1, 3, 6, 9, 13, 16): 156% |
| CCn1c(=Cc2sc3c4ccccc4ccc3[n+]2CC)sc(=CC=C2Sc3ccc4ccccc4c3N2C)c1=O [Compound 32] | 0.02 µg/mL | 1000 | 20 µg/mL | – | – | > 200 | – | – | – | – | – | – | 20 µg/mL | CRL-1420 (IC50) [6]: < 0.1 µg/mL; inhibition in vivo at 20 mg/kg ([4]; i.p. on day 1, 2, 4, 6, 8): 40.5%; response vs control in vivo at 40 mg/kg (human melanoma LOX; 40 mg/kg, i.p. on day 1, 2, 3, 4, 5, 7, 8, 9, 10): 231% |
| CCN1C(=CC=c2sc(=Cc3sc4c5ccccc5ccc4[n+]3C)n(C)c2=O)Sc2ccc3ccccc3c21 [Compound 46] | 0.05 µg/mL | 400 | 20 µg/mL | 0.082 µg/mL | 244 | 312 | 0.082 µg/mL | 244 | 312 | 20 µg/mL | 20 µg/mL | 20 µg/mL | 20 µg/mL | IC50 [6]: 0.064 µg/mL; IC50 ([8]; 24 h treatment): 0.064 µg/mL; inhibition in vivo at 20 mg/kg ([4]; i.p. on day 1, 5, 7, 9): 60.1%; response vs control in vivo at 20 mg/kg (human melanoma LOX; i.p. on day 1, 3, 6, 9, 13, 16): 222% |
| CCN1/C(=C/C=C/c2sc3c4ccccc4ccc3[n+]2CC)Sc2c1ccc1ccccc21 [C, reference compound] | 0.05 µg/mL | – | < 0.1 µg/mL | – | – | – | – | – | – | – | – | – | – | toxicity to normal nude mice (normal nude mice): highly toxic to normal nude mice |
| CCN1C(=CC=c2sc(=Cc3sc4c([n+]3CC)CCCC4)n(CC)c2=O)Oc2ccccc21 [Compound A, reference compound] | 0.04 µg/mL | – | 2 µg/mL | – | – | – | – | – | – | – | – | – | – | toxicity to normal nude mice (normal nude mice): less toxic to normal nude mice |
| CCN1/C(=C/C=C/c2sc3ccccc3[n+]2CC)Sc2ccccc21 [B, reference compound] | – | – | 0.6 µg/mL | – | – | – | – | – | – | – | – | – | – | toxicity to normal nude mice (normal nude mice): highly toxic to normal nude mice |

From patent publication US5861424A, “Composition and method for treating cancer” (priority 1995, dated 1999)
